The data set relates to rodent carcinogenicity bioassays, tumor incidence. The data set is described as follows: CCRIS carcinogenicity studies. The procedure, abridged:
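Archive of carcinogenicity, mutagenicity, tumor promotion and tumor inhibition results drawn from journals, NCI reports and other sources, expert-reviewed; covers 1985-2011 and is no longer updated.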

Active and inactive are the calls of the source. No rule for the calls is given here.

Regarding `C=CBr`, the carcinogen call by setting is: (Species: RAT, Strain/Sex: SPRAGUE-DAWLEY/FEMALE, Route: INHALATION, Dose: 10, 50, 250, 1250 PPM 6 HR/D 5/WK FOR 24 MO, Dose: 10, 50, 250, 1250 PPM 6 HR/D 5/WK FOR 24 MO, Tumor Site: Type of Lesion: LIVER: ANGIOSARCOMA, EAR (ZYMBAL GLAND): SQUAMOUS CELL CARCINOMA) “active; positive”; (Species: RAT, Strain/Sex: SPRAGUE-DAWLEY/MALE, Route: INHALATION, Dose: 10, 50, 250, 1250 PPM 6 HR/D 5/WK FOR 24 MO, Dose: 10, 50, 250, 1250 PPM 6 HR/D 5/WK FOR 24 MO, Tumor Site: Type of Lesion: LIVER: ANGIOSARCOMA, EAR (ZYMBAL GLAND): PAPILLOMA, SQUAMOUS CELL CARCINOMA) “active; positive”.

`CN(C)CCOc1ccc(/C(=C(/CCCl)c2ccccc2)c2ccccc2)cc1`: the carcinogen call runs as follows: (Species: RAT, Strain/Sex: SPRAGUE-DAWLEY/FEMALE, Route: GAVAGE, Dose: 0, 12, 24 MG/KG IN 0.5% CARBOXYMETHYLCELLULOSE 1/D 7 D/WK FOR UP TO 12 MO (STUDY DURATION: 15 MO), Dose: 0, 12, 24 MG/KG IN 0.5% CARBOXYMETHYLCELLULOSE 1/D 7 D/WK FOR UP TO 12 MO (STUDY DURATION: 15 MO)) “inactive; negative”; (Species: RAT, Strain/Sex: SPRAGUE-DAWLEY/FEMALE, Route: ORAL, Dose: 0, 0.12, 1.2, 5, 12 MG/KG/D IN DIET FOR DURATION OF STUDY (STUDY DURATION: 104 WK), Dose: 0, 0.12, 1.2, 5, 12 MG/KG/D IN DIET FOR DURATION OF STUDY (STUDY DURATION: 104 WK)) “inactive; negative”; (Species: RAT, Strain/Sex: SPRAGUE-DAWLEY/MALE, Route: ORAL, Dose: 0, 0.12, 1.2, 5, 12 MG/KG/D IN DIET FOR DURATION OF STUDY (STUDY DURATION: 104 WK), Dose: 0, 0.12, 1.2, 5, 12 MG/KG/D IN DIET FOR DURATION OF STUDY (STUDY DURATION: 104 WK)) “inactive; negative”.

Take `Cc1cccn2c1nc1ccc(N)nc12`: the carcinogen call by setting is: (Species: MOUSE, Strain/Sex: B6C3F1/MALE, Route: INTRAPERITONEAL, Dose: 0, 0.625 UMOL IN 35 µL DMSO ON D 1, 8, AND 15 AFTER BIRTH (STUDY DURATION: 8 MO), Tumor Site: Type of Lesion: LIVER: HEPATOCELLULAR ADENOMA) “active; positive”; (Species: MOUSE, Strain/Sex: B6C3F1/MALE, Route: INTRAPERITONEAL, Dose: 0, 0.625 UMOL IN 35 µL DMSO ON D 1, 8, AND 15 AFTER BIRTH (STUDY DURATION: 12 MO), Tumor Site: Type of Lesion: LIVER: HEPATOCELLULAR ADENOMA) “active; positive”; (Species: MOUSE, Strain/Sex: B6C3F1/MALE, Route: INTRAPERITONEAL, Dose: 0, 1.25 UMOL IN 35 µL DMSO ON D 1, 8, AND 15 AFTER BIRTH (STUDY DURATION: 8 MO), Tumor Site: Type of Lesion: LIVER: HEPATOCELLULAR ADENOMA) “active; positive”; (Species: MOUSE, Strain/Sex: B6C3F1/MALE, Route: INTRAPERITONEAL, Dose: 0, 1.25 UMOL IN 35 µL DMSO ON D 1, 8, AND 15 AFTER BIRTH (STUDY DURATION: 12 MO), Tumor Site: Type of Lesion: LIVER: HEPATOCELLULAR ADENOMA) “active; positive”; (Species: MOUSE, Strain/Sex: CDF1/FEMALE, Route: ORAL, Dose: 0, 0.05% IN DIET FOR UP TO 685 D (STUDY DURATION: 685 D), Tumor Site: Type of Lesion: LIVER: HEPATOCELLULAR ADENOMA OR CARCINOMA, BLOOD VESSELS: HEMANGIOENDOTHELIOMA OR HEMANGIOENDOTHELIAL SARCOMA) “active; positive”; (Species: MOUSE, Strain/Sex: CDF1/MALE, Route: ORAL, Dose: 0, 0.05% IN DIET FOR 12 MO (STUDY DURATION: 12 MO), Tumor Site: Type of Lesion: BROWN ADIPOSE TISSUE: HEMANGIOENDOTHELIAL SARCOMA, LIVER: HEPATOCELLULAR ADENOMA OR CARCINOMA, LUNG: PULMONARY ADENOMA O, Tumor Site: Type of Lesion: BROWN ADIPOSE TISSUE: HEMANGIOENDOTHELIAL SARCOMA, LIVER: HEPATOCELLULAR ADENOMA OR CARCINOMA, LUNG: PULMONARY ADENOMA O) “active; positive”. Besides, the carcinogen call (Species: MOUSE, Strain/Sex: CDF1/MALE, Route: ORAL, Dose: 0, 0.05% IN DIET FOR UP TO 685 D (STUDY DURATION: 685 D), Tumor Site: Type of Lesion: BLOOD VESSELS: HEMANGIOENDOTHELIOMA OR HEMANGIOENDOTHELIAL SARCOMA) was “active; positive”; the carcinogen call (Species: RAT, Strain/Sex: F344/FEMALE, Route: ORAL, Dose: 0, 500 PPM IN DIET (AV DAILY DOSE: 4.3 MG) FOR 24 MO (STUDY DURATION: 104 WK), Tumor Site: Type of Lesion: LIVER: HEPATOCELLULAR CARCINOMA OR ANAPLASTIC HEPATOMA, SMALL INTESTINE: ADENOMA OR ADENOCARCINOMA OR MUCINOUS CARCINOMA) is “active; positive”; the carcinogen call (Species: RAT, Strain/Sex: F344/MALE, Route: ORAL, Dose: 0, 500 PPM IN DIET (AV DAILY DOSE: 7.4 MG) FOR 24 MO (STUDY DURATION: 104 WK), Tumor Site: Type of Lesion: LIVER: HEPATOCELLULAR CARCINOMA OR ANAPLASTIC HEPATOMA, SMALL INTESTINE: ADENOMA OR ADENOCARCINOMA OR MUCINOUS CARCINOMA) is “active; positive”.

For the compound `O=C(C1CCCCC1)N1CC(=O)N2CCc3ccccc3C2C1` (stereo not drawn), the carcinogen call (Species: HAMSTER, Strain/Sex: SYRIAN/MALE, Route: GAVAGE, Dose: 0, 300 MG/KG IN CORN OIL 1/5 WK FOR A TOTAL OF 5 DOSES (STUDY DURATION: 40 WK)) was “inactive; negative”.

For the compound `CNc1ccc(N=Nc2ccccc2)cc1`, the carcinogen call (Species: MOUSE, Strain/Sex: B6C3F1/FEMALE, Route: INTRAPERITONEAL, Dose: 0, 0.3 UMOL/G IN TRIOCTANOIN ONCE ON DAY 1 FOLLOWED BY 0.4 UMOL/G ONCE ON DAY 8, 15 AND 22 (STUDY DURATION: 10 MO)) was “inactive; negative”; the carcinogen call (Species: MOUSE, Strain/Sex: B6C3F1/MALE, Route: INTRAPERITONEAL, Dose: 0, 0.017, 0.05, 0.15, 0.45 UMOL/G ONCE IN TRIOCTANOIN (STUDY DURATION: 10 MO), Dose: 0, 0.017, 0.05, 0.15, 0.45 UMOL/G ONCE IN TRIOCTANOIN (STUDY DURATION: 10 MO), Tumor Site: Type of Lesion: LIVER: HEPATOMA) was “active; positive”; the carcinogen call (Species: MOUSE, Strain/Sex: B6C3F1/MALE, Route: INTRAPERITONEAL, Dose: 0, 0.3 UMOL/G IN TRIOCTANOIN ONCE ON DAY 1 FOLLOWED BY 0.4 UMOL/G ONCE ON DAY 8, 15 AND 22 (STUDY DURATION: 10 MO), Tumor Site: Type of Lesion: LIVER: HEPATOMA) was “active; positive”; the carcinogen call (Species: MOUSE, Strain/Sex: C3H/MALE, Route: INTRAPERITONEAL, Dose: 0, 0.45 UMOL/G ONCE IN TRIOCTANOIN (STUDY DURATION: 11 MO), Tumor Site: Type of Lesion: LIVER: HEPATOMA) is “active; positive”; the carcinogen call (Species: MOUSE, Strain/Sex: C57BL/MALE, Route: INTRAPERITONEAL, Dose: 0, 0.45 UMOL/G ONCE IN TRIOCTANOIN (STUDY DURATION: 11 MO), Tumor Site: Type of Lesion: LIVER: HEPATOMA) was “active; positive”; the carcinogen call (Species: RAT, Strain/Sex: F344/MALE, Route: INTRAPERITONEAL, Dose: 0, 0.3 UMOL/G IN TRIOCTANOIN ONCE ON DAY 1 FOLLOWED BY 0.4 UMOL/G ONCE ON DAY 8, 15 AND 22 (STUDY DURATION: 24 MO), Tumor Site: Type of Lesion: LIVER: HEPTOCELLULAR CARCINOMA) was “active; positive”. For the same compound, the carcinogen call by setting is: (Species: RAT, Strain/Sex: SHERMAN, Route: ORAL, Dose: 0.056% IN DIET FOR 132 TO 250 D, Tumor Site: Type of Lesion: LIVER: HEPATOMA) “active; positive”; (Species: RAT, Strain/Sex: SPRAGUE-DAWLEY/MALE, Route: ORAL, Dose: 0.056% IN DIET FOR 4 MO, Tumor Site: Type of Lesion: LIVER: HEPATOMA) “active; positive”.

Source of the values: PubChem BioAssay AID1259411 (Chemical Carcinogenesis Research Information System (CCRIS), 2018).
